The results in this text go back to publication PMC4522657, “Identification of a DYRK1A Inhibitor that Induces Degradation of the Target Kinase using Co-chaperone CDC37 fused with Luciferase nanoKAZ” (Scientific Reports, 2015).

Assay [1] concerns the target T1, FGFR1 (Homo sapiens, UniProt P11362).
T1 construct: purchased Carna Biosciences
Description: Kinase panel, CaNDY 1 µM. It is filed as biochemical. The settings on record: CaNDY 1 µM relative to DMSO. The source says: (§1) Detailed information on the assay conditions is available on the website of Carna Biosciences (http://www.carnabio.com/english/index.html; Kobe, Japan). In brief, full-length human recombinant kinases were expressed using a baculovirus expression system as amino-terminal GST-fusion proteins, and purified by glutathione-Sepharose chromatography. The GenBank accession numbers of DYRK1A, DYRK1B, DYRK2, and DYRK3 were NP_001387.2, NP_004705.1, NP_003574.1, and NP_003573.2. Kinase activities were evaluated by Off-chip Mobility Shift Assay after reaction of 1 μM of the substrate DYRKtide-F with ATP (25 μM for DYRK1A, 50 μM for DYRK1B, 10 μM for DYRK2, and 5 μM for DYRK3). For each compound, a DMSO solution was diluted in assay buffer to yield a final concentration of 1% DMSO. After incubation for one hour at room temperature, substrate phosphorylation was analyzed by electrophoretic separation of the substrate and products using a Caliper LC3000 platform (Caliper Life Sciences, Mountain View, CA, USA). The phosphorylated product (P)/(P + substrate) ratio was calculated at each concentration of each small molecule and the percent inhibition was expressed relative to a control assay in the absence of the small molecule. […] The IC50 of each compound was calculated by interpolation on a log-concentration-response curve fitted with a four-parameter logistic equation.
(§2) All kinase assays were carried out at Carna Biosciences. The inhibitory map was made with Kinome Render[36].

For assay [2], the target named is T2, IKKβ (Homo sapiens, UniProt O14920).
T2 construct: purchased Carna Biosciences
Briefly: Kinase panel, CaNDY 1 µM. It is filed as biochemical. The settings on record: CaNDY 1 µM relative to DMSO.
From the text: as §1, §2

Assay [3] deals with T3, PKACγ (Homo sapiens, UniProt P22612).
T3 construct: purchased Carna Biosciences
Description: Kinase panel, CaNDY 1 µM. The class given is biochemical. The settings on record: CaNDY 1 µM relative to DMSO.
From the text: as §1, §2

Assay [4] addresses T4, RON (Homo sapiens, UniProt Q04912).
T4 construct: purchased Carna Biosciences
Description: Kinase panel, CaNDY 1 µM. It is filed as biochemical. As to conditions: CaNDY 1 µM relative to DMSO.
From the text: as §1, §2

Assay [5] concerns the target T5, EGFR(d746-750/T790M) (Homo sapiens, UniProt P00533, DEL746-750/T790M).
T5 construct: purchased Carna Biosciences
Briefly: Kinase panel, CaNDY 1 µM. The class given is biochemical. The settings on record: CaNDY 1 µM relative to DMSO.

For assay [6], the target named is T6, FGFR4(N535K) (Homo sapiens, UniProt P22455, N535K).
T6 construct: purchased Carna Biosciences
Briefly: Kinase panel, CaNDY 1 µM. It is filed as biochemical. The settings on record: CaNDY 1 µM relative to DMSO.

The target of assay [7] is T7, KDR (Homo sapiens, UniProt P35968).
T7 construct: purchased Carna Biosciences
Briefly: Kinase panel, CaNDY 1 µM. The class given is biochemical. As to conditions: CaNDY 1 µM relative to DMSO.

For assay [8], the target named is T8, SYK (Homo sapiens, UniProt P43405).
T8 construct: purchased Carna Biosciences
Briefly: Kinase panel, CaNDY 1 µM. The class given is biochemical. The settings on record: CaNDY 1 µM relative to DMSO.

Assay [9] addresses T9, CaMK1α (Homo sapiens, UniProt Q14012).
T9 construct: purchased Carna Biosciences
Briefly: Kinase panel, CaNDY 1 µM. It is filed as biochemical. The settings on record: CaNDY 1 µM relative to DMSO.

In assay [10] the target is T10, CaMK1δ (Homo sapiens, UniProt Q8IU85).
T10 construct: purchased Carna Biosciences
Description: Kinase panel, CaNDY 1 µM. It is filed as biochemical. As to conditions: CaNDY 1 µM relative to DMSO.

Assay [11] concerns the target T11, CK1γ2 (Homo sapiens, UniProt P78368).
T11 construct: purchased Carna Biosciences
Description: Kinase panel, CaNDY 1 µM. It is filed as biochemical. As to conditions: CaNDY 1 µM relative to DMSO.

Assay [12] has as its target T12, MSK1 (Homo sapiens, UniProt O75582).
T12 construct: purchased Carna Biosciences
Description: Kinase panel, CaNDY 1 µM. It is filed as biochemical. As to conditions: CaNDY 1 µM relative to DMSO.

Assay [13] addresses T13, PDHK2 (Homo sapiens, UniProt Q15119).
T13 construct: purchased Carna Biosciences
Description: Kinase panel, CaNDY 1 µM. As to conditions: CaNDY 1 µM relative to DMSO. The class given is biochemical.

Assay [14] has as its target T14, PHKG2 (Homo sapiens, UniProt P15735).
T14 construct: purchased Carna Biosciences
Briefly: Kinase panel, CaNDY 1 µM. The class given is biochemical. The settings on record: CaNDY 1 µM relative to DMSO.

The target in assay [15] is T15, PKCβ1 (Homo sapiens, UniProt P05771).
T15 construct: purchased Carna Biosciences
Briefly: Kinase panel, CaNDY 1 µM. The class given is biochemical. As to conditions: CaNDY 1 µM relative to DMSO.

Assay [16] deals with T16, PKCβ2 (Homo sapiens, UniProt P05771).
T16 construct: purchased Carna Biosciences
Briefly: Kinase panel, CaNDY 1 µM. It is filed as biochemical. The settings on record: CaNDY 1 µM relative to DMSO.

Assay [17] concerns the target T17, interaction of CDC37-nanoKAZ with 3xFLAG-DYRK1A (Y319F/Y321F) (Homo sapiens, UniProt Q13627, Y319F/Y321F).
T17 construct: F2A peptide linking to EGFP (2A skipping releases EGFP; a 2A remnant may stay on DYRK1A) (C); expressed in transfected cells; host or cells: 293T cells stably expressing CDC37-nanoKAZ, transiently transfected with pcDNA5/FRT/TO 3xFLAG-DYRK1A (Y319F/Y321F)
Description: CDC37-nanoKAZ binding assay (ELISA of the CDC37-nanoKAZ interaction) in 293T cells. It is filed as cell-based. The method, then:
The cells were then treated with the indicated concentrations of small molecules for one hour. Cell lysates were added to FLAG antibody-coated 96-well plates and luminescence intensities were measured. The amount of bound 3xFLAG-DYRK1A was measured using a HRP-conjugated antibody against FLAG. The relative Imax for CDC37-nanoKAZ was normalized using the amount of bound protein.
Stable cell lines transfected with expression vectors for 3xFLAG-tagged DYRK family kinases and its mutants were lysed in ice-cold HENG buffer (50 mM HEPES-KOH, pH 7.9, 150 mM NaCl, 20 mM Na2MoO4, 2 mM EDTA, 5% Glycerol, 0.5% TritonX-100) containing protease inhibitor cocktail (Nacalai Tesque) on ice. […] The wells were wash three times with ice-cold HENG buffer and then a luminescence assay was performed.
The luminescence activity of the cell lysates was determined using a Centro LB 960 Microplate Luminometer (Berthold Technologies, Bad Wildbad, Germany). A reaction mixture containing bis-coelenterazine (final concentration of 0.1–1 μg/100 μL) in PBS containing 0.02% Tween20 and 20 mM EDTA was injected. The luminescence intensity was recorded at 0.1 s intervals for 10 s or 10 min. The maximum luminescence intensity (Imax), represented in relative luminescence units (rlu), was used in the study.
After measuring the luminescence intensities, the wells were washed three times with HENG buffer, and incubated with HRP-conjugated anti-FLAG antibody diluted with PBS containing […] and 2% fetal bovine serum at 37 °C for one hour. After extensive washing, […] Super Sensitive One Component HRP Microwell Substrate (SurModics, Eden Prairie, MN, USA) was added into the well and the reaction was stopped with sulfuric acid. Absorbance at 450 nm was measured with ARVO X5 (PerkinElmer). The relative amount of protein bound on the well was estimated from the absorbance.
In Supporting Figure S1a, the values of Imax are shown in kinetics plots. In Figs 2c,e, 3c, S1d, S3, and S4, the relative luminescence intensities are shown as the fold-change in the Imax values of the samples relative to Imax with EGFP. In Figs 4, 5a,c and 6c, the relative luminescence intensities were normalized to the amount of the bound 3xFLAG-DYRK1A mutant and calculated as the fold-change relative to the value at 0 μM of the compounds.
Small molecules in our original synthetic chemical library, including unpublished small molecule inhibitors of DYRK1A and its structural derivatives (data not shown), were added to the 96-well plates containing the transfected cells at a final concentration of 4 μM. The cells were then processed as described above.
A general note: In an ELISA, binding on a coated surface is turned into a signal by an enzyme label.

By remaining activity is commonly meant the signal under treatment as a percentage of the control signal. For orientation: EC50 means the midpoint of the concentration-response curve.

T16 sequence (P05771 1-673 isoform P05771-2): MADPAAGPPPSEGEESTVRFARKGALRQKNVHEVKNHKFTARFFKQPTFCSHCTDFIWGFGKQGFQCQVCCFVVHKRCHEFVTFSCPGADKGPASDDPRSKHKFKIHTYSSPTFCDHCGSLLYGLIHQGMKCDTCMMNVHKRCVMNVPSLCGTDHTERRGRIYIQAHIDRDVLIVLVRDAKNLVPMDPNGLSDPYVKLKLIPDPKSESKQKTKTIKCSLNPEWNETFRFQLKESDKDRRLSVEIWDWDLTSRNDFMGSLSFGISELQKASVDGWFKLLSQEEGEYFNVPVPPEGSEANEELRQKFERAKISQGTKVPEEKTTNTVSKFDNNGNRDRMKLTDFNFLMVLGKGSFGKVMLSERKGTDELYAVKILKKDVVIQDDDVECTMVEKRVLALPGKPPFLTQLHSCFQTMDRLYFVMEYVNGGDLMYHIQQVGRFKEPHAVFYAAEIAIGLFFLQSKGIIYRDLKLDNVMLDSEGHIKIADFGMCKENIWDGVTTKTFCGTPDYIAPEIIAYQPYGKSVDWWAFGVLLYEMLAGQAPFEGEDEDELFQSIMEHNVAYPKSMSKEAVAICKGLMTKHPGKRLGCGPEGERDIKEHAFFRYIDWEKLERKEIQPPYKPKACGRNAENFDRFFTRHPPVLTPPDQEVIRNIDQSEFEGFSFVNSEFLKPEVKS
T1 sequence (P11362 22-822): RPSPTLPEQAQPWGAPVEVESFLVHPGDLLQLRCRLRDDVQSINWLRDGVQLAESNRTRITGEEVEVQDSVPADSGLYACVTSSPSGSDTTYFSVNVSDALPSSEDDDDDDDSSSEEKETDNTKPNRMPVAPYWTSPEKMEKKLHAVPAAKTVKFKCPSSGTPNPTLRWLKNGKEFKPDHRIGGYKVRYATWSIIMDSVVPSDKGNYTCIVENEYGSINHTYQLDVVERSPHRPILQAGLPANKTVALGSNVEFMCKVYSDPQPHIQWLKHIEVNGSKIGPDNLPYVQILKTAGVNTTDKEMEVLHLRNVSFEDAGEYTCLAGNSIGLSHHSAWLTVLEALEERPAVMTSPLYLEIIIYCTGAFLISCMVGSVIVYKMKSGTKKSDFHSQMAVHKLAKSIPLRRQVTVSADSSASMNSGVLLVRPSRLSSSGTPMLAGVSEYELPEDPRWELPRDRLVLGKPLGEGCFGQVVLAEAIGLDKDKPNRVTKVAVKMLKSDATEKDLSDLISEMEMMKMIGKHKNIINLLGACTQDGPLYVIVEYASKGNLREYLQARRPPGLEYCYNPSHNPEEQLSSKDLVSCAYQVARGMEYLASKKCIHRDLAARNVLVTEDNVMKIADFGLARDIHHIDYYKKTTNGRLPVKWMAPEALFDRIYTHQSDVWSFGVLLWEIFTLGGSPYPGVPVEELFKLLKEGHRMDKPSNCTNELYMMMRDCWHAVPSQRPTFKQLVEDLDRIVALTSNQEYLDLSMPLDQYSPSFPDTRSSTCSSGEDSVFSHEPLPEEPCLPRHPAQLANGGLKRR
T15 sequence (P05771 whole entry): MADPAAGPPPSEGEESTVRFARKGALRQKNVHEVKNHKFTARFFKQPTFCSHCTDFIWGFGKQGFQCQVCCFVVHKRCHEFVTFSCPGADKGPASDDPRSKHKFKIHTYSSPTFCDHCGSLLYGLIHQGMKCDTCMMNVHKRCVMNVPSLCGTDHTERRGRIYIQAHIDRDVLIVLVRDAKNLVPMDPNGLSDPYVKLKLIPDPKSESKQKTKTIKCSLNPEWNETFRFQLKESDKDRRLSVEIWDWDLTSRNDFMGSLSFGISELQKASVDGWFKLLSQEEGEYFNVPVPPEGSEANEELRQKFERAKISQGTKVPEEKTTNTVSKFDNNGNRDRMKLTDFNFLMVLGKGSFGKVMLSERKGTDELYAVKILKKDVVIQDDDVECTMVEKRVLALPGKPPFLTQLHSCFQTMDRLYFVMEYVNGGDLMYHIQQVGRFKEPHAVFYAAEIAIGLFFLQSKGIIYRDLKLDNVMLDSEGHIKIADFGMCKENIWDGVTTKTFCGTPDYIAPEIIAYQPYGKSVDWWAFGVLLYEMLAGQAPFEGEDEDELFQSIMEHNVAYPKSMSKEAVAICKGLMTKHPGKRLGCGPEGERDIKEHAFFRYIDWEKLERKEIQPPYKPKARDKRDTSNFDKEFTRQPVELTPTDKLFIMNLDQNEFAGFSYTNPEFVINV
T12 sequence (O75582 whole entry): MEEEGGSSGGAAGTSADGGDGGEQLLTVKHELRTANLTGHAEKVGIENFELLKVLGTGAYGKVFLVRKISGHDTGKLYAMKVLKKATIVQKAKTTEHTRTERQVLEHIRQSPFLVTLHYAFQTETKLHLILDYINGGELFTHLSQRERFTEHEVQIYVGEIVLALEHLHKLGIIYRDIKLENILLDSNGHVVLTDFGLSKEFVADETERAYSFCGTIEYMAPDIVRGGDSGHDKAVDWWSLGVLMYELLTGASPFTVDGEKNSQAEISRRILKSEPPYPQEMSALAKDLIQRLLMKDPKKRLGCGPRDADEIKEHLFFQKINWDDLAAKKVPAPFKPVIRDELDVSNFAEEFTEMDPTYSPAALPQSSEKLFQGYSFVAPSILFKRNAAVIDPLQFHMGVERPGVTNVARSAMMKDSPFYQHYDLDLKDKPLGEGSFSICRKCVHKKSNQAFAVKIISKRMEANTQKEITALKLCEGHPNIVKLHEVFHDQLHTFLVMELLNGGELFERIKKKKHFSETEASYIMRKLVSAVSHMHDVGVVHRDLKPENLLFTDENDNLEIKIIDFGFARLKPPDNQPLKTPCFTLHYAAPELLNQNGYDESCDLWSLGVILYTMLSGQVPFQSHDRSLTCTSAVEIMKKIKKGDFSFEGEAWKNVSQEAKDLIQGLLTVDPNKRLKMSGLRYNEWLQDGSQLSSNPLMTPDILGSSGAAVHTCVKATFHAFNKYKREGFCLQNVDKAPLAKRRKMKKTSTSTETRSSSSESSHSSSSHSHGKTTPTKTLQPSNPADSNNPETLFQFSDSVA
T6 sequence (P22455 22-802 N535K): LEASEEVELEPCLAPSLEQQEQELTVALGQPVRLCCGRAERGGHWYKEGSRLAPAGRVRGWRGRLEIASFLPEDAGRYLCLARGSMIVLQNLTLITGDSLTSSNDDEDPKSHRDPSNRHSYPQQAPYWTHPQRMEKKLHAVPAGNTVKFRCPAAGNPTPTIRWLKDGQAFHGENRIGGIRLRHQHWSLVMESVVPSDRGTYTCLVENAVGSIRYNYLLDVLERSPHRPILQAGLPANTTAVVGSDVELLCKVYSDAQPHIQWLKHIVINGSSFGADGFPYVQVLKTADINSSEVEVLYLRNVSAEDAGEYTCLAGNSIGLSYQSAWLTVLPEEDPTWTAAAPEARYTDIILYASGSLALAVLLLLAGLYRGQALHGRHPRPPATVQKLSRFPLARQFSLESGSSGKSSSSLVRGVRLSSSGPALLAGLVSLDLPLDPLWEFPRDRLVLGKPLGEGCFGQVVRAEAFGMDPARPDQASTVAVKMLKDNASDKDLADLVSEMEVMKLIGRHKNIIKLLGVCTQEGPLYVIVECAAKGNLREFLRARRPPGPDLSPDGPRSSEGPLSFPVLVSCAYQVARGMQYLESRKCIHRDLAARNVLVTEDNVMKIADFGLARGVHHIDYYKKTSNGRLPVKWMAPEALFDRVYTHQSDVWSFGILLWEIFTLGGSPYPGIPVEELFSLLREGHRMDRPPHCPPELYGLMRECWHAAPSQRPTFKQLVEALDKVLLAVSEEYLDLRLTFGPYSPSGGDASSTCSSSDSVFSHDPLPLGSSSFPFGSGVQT
T7 sequence (P35968 20-1356): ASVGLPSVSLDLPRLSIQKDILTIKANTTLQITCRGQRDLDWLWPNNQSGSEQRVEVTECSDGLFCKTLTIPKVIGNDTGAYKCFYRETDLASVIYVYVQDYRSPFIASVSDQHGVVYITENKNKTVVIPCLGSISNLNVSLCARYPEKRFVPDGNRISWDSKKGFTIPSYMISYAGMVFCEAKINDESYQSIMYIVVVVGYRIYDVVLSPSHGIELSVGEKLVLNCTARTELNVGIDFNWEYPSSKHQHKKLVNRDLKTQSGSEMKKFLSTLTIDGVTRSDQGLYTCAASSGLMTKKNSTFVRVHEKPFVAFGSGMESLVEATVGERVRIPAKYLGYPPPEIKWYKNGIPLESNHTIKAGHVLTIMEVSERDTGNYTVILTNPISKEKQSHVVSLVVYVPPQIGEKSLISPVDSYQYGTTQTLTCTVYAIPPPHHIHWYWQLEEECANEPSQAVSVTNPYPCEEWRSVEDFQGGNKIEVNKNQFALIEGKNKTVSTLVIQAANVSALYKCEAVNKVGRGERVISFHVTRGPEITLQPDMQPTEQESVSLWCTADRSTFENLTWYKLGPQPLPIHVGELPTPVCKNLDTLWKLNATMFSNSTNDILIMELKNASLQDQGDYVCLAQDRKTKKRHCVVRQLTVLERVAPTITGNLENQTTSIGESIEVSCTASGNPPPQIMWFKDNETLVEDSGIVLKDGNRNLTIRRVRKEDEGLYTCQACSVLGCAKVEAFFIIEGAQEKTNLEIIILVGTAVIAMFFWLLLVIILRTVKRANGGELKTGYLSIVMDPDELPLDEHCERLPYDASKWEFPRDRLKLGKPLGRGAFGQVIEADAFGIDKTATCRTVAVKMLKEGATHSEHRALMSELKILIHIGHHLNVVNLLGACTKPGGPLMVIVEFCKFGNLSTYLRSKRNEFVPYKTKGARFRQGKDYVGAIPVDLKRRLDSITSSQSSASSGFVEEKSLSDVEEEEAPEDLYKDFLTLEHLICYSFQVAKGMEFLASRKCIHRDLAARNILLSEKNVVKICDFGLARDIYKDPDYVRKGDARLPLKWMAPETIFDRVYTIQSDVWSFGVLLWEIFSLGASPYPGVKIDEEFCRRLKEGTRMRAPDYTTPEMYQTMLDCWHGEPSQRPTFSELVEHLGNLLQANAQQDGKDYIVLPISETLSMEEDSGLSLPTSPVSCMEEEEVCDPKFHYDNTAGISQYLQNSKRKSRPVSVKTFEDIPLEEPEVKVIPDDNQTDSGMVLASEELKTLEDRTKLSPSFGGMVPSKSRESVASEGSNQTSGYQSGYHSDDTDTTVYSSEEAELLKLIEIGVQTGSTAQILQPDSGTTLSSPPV

Consider `[H]/N=C1/NC(=O)C(=Cc2ccc3c(c2)CCO3)S1` [CaNDY, (Z)-5-[(2,3-dihydrobenzofuran-5-yl)methylene]-2-iminothiazolidin-4-one], for which the remaining activity at 1 µM was found to be 105% in assay [1]; 104% in [2]; 78.2% in assay [3]; 98.6% in [4]; 100% in assay [6]; 102% in assay [7]. The remaining activity at 1 µM in assay [9] worked out at 100%; in [10], 103%; in assay [12] it was 98.1%; in assay [13] it was 91.6%; in assay [14], 88%; in [15], 83.8%. Besides, the remaining activity at 1 µM in assay [16] is 88.2%. Moreover, the “%Activity” value was determined as 101.0% in [5], 93.7% in assay [8] and 75.4% in [11]. In addition, the half-maximal effective concentration (EC50) in assay [17] (293T cells stably expressing CDC37-nanoKAZ, treated one hour, read-out: EC50, decrease of relative luminescence intensity) is 409 nM. Also, in assay [17] (compounds at 4 μM, 253 compounds), the “relative luminescence intensity in library screen” value is reported as “decreased the luminescence intensity to the lowest level”.
